Source: ChEMBL document CHEMBL5303765, “Data for DCP probe BAY-7081” (2023)
Activity calls are given as the source filed them. No cut-off for these calls is given here.

Tests used:
[1] = biological target: T1, Serine/threonine-protein kinase ULK1 (Homo sapiens) (UniProt O75385); assay: ULK1 SGC Tm panel (DSF); details: for ΔTm: Compound concentration 10.0 uM
T1 sequence (whole entry): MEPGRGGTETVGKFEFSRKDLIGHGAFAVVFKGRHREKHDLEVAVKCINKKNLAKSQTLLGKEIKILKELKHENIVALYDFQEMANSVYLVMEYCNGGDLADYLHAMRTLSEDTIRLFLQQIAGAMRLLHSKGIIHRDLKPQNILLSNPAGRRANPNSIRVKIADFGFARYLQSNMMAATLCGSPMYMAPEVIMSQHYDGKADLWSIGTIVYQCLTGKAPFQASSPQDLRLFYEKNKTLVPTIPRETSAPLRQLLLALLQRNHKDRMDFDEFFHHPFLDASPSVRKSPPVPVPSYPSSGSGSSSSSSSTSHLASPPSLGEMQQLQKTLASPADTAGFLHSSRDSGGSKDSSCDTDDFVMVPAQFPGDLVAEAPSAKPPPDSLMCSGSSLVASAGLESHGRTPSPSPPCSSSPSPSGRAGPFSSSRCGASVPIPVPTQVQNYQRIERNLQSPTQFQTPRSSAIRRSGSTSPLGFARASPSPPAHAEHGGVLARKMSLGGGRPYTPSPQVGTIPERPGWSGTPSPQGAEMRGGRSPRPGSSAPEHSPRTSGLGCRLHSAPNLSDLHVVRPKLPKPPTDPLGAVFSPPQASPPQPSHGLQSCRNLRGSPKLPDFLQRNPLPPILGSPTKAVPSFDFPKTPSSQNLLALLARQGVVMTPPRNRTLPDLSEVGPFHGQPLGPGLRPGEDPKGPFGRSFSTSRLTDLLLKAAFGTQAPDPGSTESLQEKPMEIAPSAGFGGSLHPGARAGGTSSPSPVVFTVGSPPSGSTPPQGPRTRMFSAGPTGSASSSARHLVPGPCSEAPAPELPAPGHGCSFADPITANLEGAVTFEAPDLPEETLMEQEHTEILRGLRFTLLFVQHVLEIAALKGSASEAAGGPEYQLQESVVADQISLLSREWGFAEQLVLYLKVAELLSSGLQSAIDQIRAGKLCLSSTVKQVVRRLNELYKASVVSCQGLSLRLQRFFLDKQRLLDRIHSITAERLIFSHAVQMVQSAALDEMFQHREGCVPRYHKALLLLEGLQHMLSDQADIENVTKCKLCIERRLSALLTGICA

[2] = biological target: T2, Serine/threonine-protein kinase PLK4 (Homo sapiens) (UniProt O00444); assay: PLK4 SGC Tm panel (DSF); details: for ΔTm: Compound concentration 10.0 uM
T2 sequence (whole entry): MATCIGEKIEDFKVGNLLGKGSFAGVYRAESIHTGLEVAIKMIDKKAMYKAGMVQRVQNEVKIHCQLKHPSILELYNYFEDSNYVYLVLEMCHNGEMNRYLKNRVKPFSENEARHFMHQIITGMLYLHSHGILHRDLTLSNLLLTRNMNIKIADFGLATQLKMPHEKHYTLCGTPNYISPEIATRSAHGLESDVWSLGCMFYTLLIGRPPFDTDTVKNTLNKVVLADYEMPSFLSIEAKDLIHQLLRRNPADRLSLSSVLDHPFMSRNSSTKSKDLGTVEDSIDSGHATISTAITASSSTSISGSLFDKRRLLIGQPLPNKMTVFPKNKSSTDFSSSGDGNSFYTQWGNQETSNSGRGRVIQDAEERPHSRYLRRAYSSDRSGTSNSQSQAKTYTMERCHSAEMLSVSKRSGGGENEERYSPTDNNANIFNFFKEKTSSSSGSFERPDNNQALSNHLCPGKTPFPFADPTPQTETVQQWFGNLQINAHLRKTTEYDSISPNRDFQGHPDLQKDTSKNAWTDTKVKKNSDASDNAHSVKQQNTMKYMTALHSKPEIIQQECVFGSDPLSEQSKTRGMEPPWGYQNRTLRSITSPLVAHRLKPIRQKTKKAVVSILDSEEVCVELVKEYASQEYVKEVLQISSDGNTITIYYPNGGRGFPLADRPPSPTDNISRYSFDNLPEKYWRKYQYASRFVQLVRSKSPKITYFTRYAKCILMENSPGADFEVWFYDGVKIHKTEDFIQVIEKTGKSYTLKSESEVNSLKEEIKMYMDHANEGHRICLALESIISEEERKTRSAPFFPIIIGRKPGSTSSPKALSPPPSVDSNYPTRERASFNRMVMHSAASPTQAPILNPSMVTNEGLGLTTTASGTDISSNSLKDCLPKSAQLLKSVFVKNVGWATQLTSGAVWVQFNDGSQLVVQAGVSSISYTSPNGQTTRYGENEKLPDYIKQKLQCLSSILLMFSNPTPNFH

[3] = biological target: GABA-A receptor; anion channel (Rattus norvegicus) (UniProt O09028+P15431+P18506+P18508+P19969+P20236+P23574+P23576+P28471+P28473+P30191+P62813+P63079+P63138+Q91ZM7+Q9ES14); details: Compound concentration 10.0 uM
[4] = biological target: High affinity cGMP-specific 3',5'-cyclic phosphodiesterase 9A (Mus musculus, UniProt O70628); assay: Cellular PDE9A assay; assay type: functional
Chain of High affinity cGMP-specific 3',5'-cyclic phosphodiesterase 9A (O70628 whole entry): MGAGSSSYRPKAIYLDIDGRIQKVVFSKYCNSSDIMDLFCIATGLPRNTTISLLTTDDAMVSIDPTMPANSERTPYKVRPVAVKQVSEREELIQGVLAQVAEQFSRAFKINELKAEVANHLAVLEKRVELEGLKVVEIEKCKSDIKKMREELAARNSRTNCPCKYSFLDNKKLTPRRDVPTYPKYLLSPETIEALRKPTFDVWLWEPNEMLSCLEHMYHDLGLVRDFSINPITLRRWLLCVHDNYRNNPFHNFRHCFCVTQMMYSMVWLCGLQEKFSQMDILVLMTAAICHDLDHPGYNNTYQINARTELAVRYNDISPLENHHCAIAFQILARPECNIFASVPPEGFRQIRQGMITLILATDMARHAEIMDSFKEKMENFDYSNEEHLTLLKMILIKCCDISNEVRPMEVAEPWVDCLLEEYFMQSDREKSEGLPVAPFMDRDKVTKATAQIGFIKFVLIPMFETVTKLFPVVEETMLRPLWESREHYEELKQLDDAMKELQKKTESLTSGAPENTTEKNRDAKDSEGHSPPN

SMILES	delta Tm Staurosporine positive control [1]	ΔTm [1]	delta Tm Staurosporine positive control [2]	ΔTm [2]	inhibition [3] [%]	EC50 [4]
CCC[C@H]1CNCc2c1[nH]c(=O)c(C#N)c2N1CCC2(CC1)CC2	14	0.0473	19.7	-0.34	3.16	0.995 µM (active)
CCC[C@@H]1CNCc2c1[nH]c(=O)c(C#N)c2N1CCC2(CC1)CC2	14	0.234	19.7	-0.315	-5.59	> 10 µM (not active)
